From article PMC11219871, “Epigenetic-based differentiation therapy for Acute Myeloid Leukemia” (Nature Communications, 2024)
Where two headings read alike, the source gives them in different places.

Key:
ML-2 = assay: RNA-seq; format: cell-based, human; settings: for ABI1 Log2FC / CBFB Log2FC / CCR2 Log2FC / CD44 Log2FC / CDK6 Log2FC / CEBPB Log2FC / CSF3R Log2FC / CTNNBIP1 Log2FC / ELANE Log2FC / EP300 Log2FC / FLI1 Log2FC / FUT4 Log2FC / GATA2 Log2FC / HCLS1 Log2FC / ITGA4 Log2FC / ITGAM Log2FC / ITGB1 Log2FC / ITGB2 Log2FC / JUN Log2FC / MPO Log2FC / MYC Log2FC / NFE2 Log2FC / PIR Log2FC / RUNX1 Log2FC / SOX4 Log2FC / SPI1 Log2FC / TESC Log2FC / TRIB1 Log2FC / ZBTB46 Log2FC / ZFP36L1 Log2FC: ML-2, RNA-Seq
Experimental: Transcriptomic analyses were performed following low-input 3′ end RNA sequencing approximation for characterization of transcriptional changes in ML-2 and HL-60 samples treated with CM-444 and CM-1758.
Low-input 3′ end RNA-seq was performed as previously described[53],[54] with minor modifications. Briefly, RNA from 0.1 ×10^6 cells from each experimental condition was purified using a Dynabeads mRNA DIRECT Purification Kit (Thermo Fisher Scientific). For barcoded cDNA generation, polyadenylated RNA was retrotranscribed using an Affinity Script cDNA Synthesis Kit (Agilent Technologies), and barcoded primers also harboring T7 promoter and a partial Read2 sequence for illumine sequencing (CGATTGAGGCCGGTAATACGACTCACTATAGGGGGCGACGTGTGCTCTTCCGATCTXXXXXXNNNNTTTTTTTTTTTTTTTTTTTT, where XXXXXX is the cell barcode and NNN is a unique molecular identifier or UMI, which represents the same initial RNA molecule for future quantification). At this point, the samples were pooled (≤6 samples per pool) at equimolar ratios assessed by q-PCR.
The samples were then treated with Exonuclease I (Thermo Fisher Scientific following a 1.2x positive SPRI-selection. Second-strand cDNA synthesis was then performed using a NEBNext Ultra II Directional RNA Second-Strand Synthesis Module (New England Biolabs) for 2 h at 16 °C, followed by a 1.4x positive solid-phase reverse immobilization (SPRI) cleanup. The samples were linearly amplified by T7 in vitro transcription using a T7 RNA Polymerase (New England Biolabs) for 16 h at 37 °C. After DNAse treatment (TURBO DNAse I, Thermo Fisher Scientific) for 15 min at 37 °C to remove dsDNA, samples were cleaned with a positive 1.2x SPRI-selection. RNA size, quality, and concentration were determined by analysis with a Qubit Fluorometer (Termo Fisher Scientific) and TapeStation (Agilent 4200 TapeSation System, Agilent Technologies). If necessary, RNA was fragmented in 200- to 300-bp fragments using Zn2+divalent cations followed by a 2x positive SPRI cleanup. Fragmented RNA was dephosphorylated using FastAP Thermosensitive Alkaline Phosphatase (Thermo Fisher Scientific) for 10 min at 37 °C to enhance RNA ligation yield. In this step, a partial Read1 ([…]) sequence for illumine sequencing was ligated to the 3′ end of the fragmented RNA using T4 RNA Ligase I (New England Biolabs). After a 1.5x positive SPRI cleanup, the RNA product was retrotranscribed using an Affinity Script cDNA Synthesis Kit (Agilent Technologies) and a specific retrotranscription primer ([…]). The library was then purified by 1.5x positive SPRI cleanup, and the yield of the previous steps was determined by q-PCR. Finally, PCR using KAPA HiFi HotStar Ready Mix (Kapa Biosystems) was performed for second-strand cDNA synthesis, illumine primers addition (Read1-P5: […] and Read2-P7: […]) and library amplification using the recommended cycle numbers to minimize over-amplification. The product was purified by a 0.7x positive SPRI cleanup. The quality of the final library was determined by q-PCR (based on the threshold cycle, or Ct, obtained for GAPDH (Fw: […], Rv: […]) or GUSB (Fw: […], Rv: […]) housekeeping genes calibrated per individual set of samples, Qubit Fluorometer (Thermo Fisher Scientific) and TapeStation (Agilent 4200 TapeStation System, Agilent Technologies). All libraries were pooled at equimolar ratios and sequenced on a NextSeq500 (Illumina) using 60 bp single-end reads at a minimum sequence depth of 10 million reads per sample.
Raw reads were demultiplexed using bcl2fastq2 Conversion Software v2.19 (Illumina) to convert base call (BCL) files into FastQ files. The quality control of FastQ files was performed using FastQC (Bioinformatics Babraham Institute). Sequencing reads were aligned to hg19 human reference using Bowtie 2 (Johns Hopkins University) and quantified using quant3p script (github.com/ctlab/quant3p). […]

Cytotoxicity (LC50) = format: cell-based; settings: human, THLE-2 cells (immortalized liver cell line, ATCC CRL-2706)
DNMT1 = DNMT1 (Homo sapiens, UniProt P26358); assay: Epigenetic panel (BPS Bioscience); DNMT1 TR-FRET IC50; format: biochemical
Experimental: DNMT1 and G9a IC50 values were measured using time-resolved fluorescence energy transfer assays, as described previously[18],[25],[26].
Binding experiments were performed in duplicate at a concentration of 10 μM.

[1] = ML-2, 25% GI50, 12 h, log2FC +/-1

Sequence of DNMT1 (P26358 whole entry): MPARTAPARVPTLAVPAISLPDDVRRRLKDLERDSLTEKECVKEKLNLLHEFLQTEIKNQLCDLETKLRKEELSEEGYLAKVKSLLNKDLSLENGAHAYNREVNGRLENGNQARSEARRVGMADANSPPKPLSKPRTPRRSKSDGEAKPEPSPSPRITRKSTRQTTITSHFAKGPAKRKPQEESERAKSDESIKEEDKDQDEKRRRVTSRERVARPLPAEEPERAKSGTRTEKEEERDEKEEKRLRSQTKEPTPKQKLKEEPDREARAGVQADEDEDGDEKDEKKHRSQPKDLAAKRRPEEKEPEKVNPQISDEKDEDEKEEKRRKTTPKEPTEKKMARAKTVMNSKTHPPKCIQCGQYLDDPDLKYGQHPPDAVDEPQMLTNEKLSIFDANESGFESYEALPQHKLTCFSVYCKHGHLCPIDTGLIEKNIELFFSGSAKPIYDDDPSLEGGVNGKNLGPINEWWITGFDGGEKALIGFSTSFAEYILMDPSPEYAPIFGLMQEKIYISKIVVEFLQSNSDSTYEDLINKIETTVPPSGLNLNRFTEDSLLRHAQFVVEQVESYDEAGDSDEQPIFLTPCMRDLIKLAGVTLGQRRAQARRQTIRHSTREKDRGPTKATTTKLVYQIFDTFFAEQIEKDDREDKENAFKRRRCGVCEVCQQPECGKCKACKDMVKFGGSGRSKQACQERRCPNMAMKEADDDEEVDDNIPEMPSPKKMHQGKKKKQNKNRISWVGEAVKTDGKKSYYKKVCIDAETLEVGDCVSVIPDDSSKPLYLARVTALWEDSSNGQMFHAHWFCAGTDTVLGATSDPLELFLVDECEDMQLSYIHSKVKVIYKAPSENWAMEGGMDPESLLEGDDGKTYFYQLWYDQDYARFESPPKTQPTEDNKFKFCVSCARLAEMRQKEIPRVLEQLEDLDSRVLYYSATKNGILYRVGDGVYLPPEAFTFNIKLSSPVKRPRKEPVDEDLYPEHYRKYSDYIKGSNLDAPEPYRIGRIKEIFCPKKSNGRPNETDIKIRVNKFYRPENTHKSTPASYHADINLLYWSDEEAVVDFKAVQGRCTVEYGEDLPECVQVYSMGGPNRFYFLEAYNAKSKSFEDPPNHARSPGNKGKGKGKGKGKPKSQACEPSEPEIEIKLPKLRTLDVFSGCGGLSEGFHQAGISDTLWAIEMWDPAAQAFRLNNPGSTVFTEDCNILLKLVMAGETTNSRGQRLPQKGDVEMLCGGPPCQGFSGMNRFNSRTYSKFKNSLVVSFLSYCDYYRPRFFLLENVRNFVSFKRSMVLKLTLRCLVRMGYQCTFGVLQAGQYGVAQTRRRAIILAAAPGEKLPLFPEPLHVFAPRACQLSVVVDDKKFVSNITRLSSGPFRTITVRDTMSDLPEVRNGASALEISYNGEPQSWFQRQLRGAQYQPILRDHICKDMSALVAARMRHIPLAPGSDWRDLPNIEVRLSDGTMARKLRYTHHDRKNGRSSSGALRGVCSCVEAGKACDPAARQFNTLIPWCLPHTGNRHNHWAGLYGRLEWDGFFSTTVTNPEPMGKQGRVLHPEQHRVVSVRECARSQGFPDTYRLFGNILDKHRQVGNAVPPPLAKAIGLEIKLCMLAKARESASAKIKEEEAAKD

Structure (SMILES) | deregulated genes (RNA-seq) (ML-2) | down-regulated genes (RNA-seq) (ML-2) | up-regulated genes (RNA-seq) (ML-2) | deregulated genes (RNA-seq) (ML-2; [1]) | down-regulated genes (RNA-seq) (ML-2; [1]) | up-regulated genes (RNA-seq) (ML-2; [1]) | ABI1 Log2FC (ML-2) | CBFB Log2FC (ML-2) | CCR2 Log2FC (ML-2) | CD44 Log2FC (ML-2) | CDK6 Log2FC (ML-2) | CEBPB Log2FC (ML-2) | CSF3R Log2FC (ML-2) | CTNNBIP1 Log2FC (ML-2) | ELANE Log2FC (ML-2) | EP300 Log2FC (ML-2) | FLI1 Log2FC (ML-2) | FUT4 Log2FC (ML-2) | GATA2 Log2FC (ML-2) | HCLS1 Log2FC (ML-2) | further results
COc1cc2nc(-c3cc(C)oc3C)cc(NCC3CCN(c4ncc(C(=O)NO)cn4)CC3)c2cc1OC [CM-1758, 2-[4-[[[2-(2,5-dimethyl-3-furyl)-6,7-dimethoxy-4-quinolyl]amino]methyl] -1-piperidyl]pyrimidine-5-carbohydroxamic acid] | 3750 | 2024 | 1726 | 2520 | 1183 | 1337 | 1.097 | 0.03944 | -0.7456 | 0.03189 | -1.439 | 0.5234 | -1.197 | 0.1531 | -2.561 | 0.4661 | -0.175 | -1.092 | 2.602 | -0.435 | ITGA4 Log2FC (ML-2): -1.164; ITGAM Log2FC (ML-2): 1.457; ITGB1 Log2FC (ML-2): 0.9913; ITGB2 Log2FC (ML-2): -0.1511; JUN Log2FC (ML-2): 1.4026; MPO Log2FC (ML-2): -2.925; MYC Log2FC (ML-2): -2.637; NFE2 Log2FC (ML-2): -0.1388; PIR Log2FC (ML-2): 0.9099; RUNX1 Log2FC (ML-2): 0.04441; SOX4 Log2FC (ML-2): 0.5561; SPI1 Log2FC (ML-2): -1.467; TESC Log2FC (ML-2): -0.171; TRIB1 Log2FC (ML-2): -0.1972; ZBTB46 Log2FC (ML-2): -0.02647; ZFP36L1 Log2FC (ML-2): 4.387; CC50 (Cytotoxicity (LC50)): 779 nM; inhibition at 10 µM (DNMT1): 66%; IC50 (DNMT1; read-out: DNMT1 IC50): 22600 nM
COc1cc2nc(-c3ccc(C)o3)cc(NCC3CCN(c4ncc(C(=O)NO)cn4)CC3)c2cc1OC [CM-444, 2-[4-[[[6,7-dimethoxy-2-(5-methyl-2-furyl)-4-quinolyl]amino]methyl]-1-piperidyl]pyrimidine-5-carbohydroxamic acid] | 558 | 88 | 470 | 460 | 44 | 416 | 0.61 | 0.4078 | 0.3405 | 0.2468 | -0.3705 | 0.009186 | -0.2226 | 0.1064 | -0.8925 | 0.282 | 0.279 | -0.09706 | 1.078 | 0.03361 | ITGA4 Log2FC (ML-2): -0.1245; ITGAM Log2FC (ML-2): 1.391; ITGB1 Log2FC (ML-2): 0.4551; ITGB2 Log2FC (ML-2): -0.139; JUN Log2FC (ML-2): 1.102; MPO Log2FC (ML-2): -1.303; MYC Log2FC (ML-2): -0.4866; NFE2 Log2FC (ML-2): 0.3613; PIR Log2FC (ML-2): 1.319; RUNX1 Log2FC (ML-2): -0.08636; SOX4 Log2FC (ML-2): 0.2683; SPI1 Log2FC (ML-2): 0.1755; TESC Log2FC (ML-2): 0.4308; TRIB1 Log2FC (ML-2): -0.2715; ZBTB46 Log2FC (ML-2): -0.2139; ZFP36L1 Log2FC (ML-2): 2.504; CC50 (Cytotoxicity (LC50)): 794 nM; inhibition at 10 µM (DNMT1): 96%; IC50 (DNMT1; as printed in Fig. 1B, read-out: IC50): 2200 nM; IC50 (DNMT1; read-out: DNMT1 IC50): 2160 nM
